These results are taken from BindingDB's records for doi:10.1016/j.bmcl.2021.128215 (Shenyang Pharmaceutical University, 2021).

pKi: −log10 of the molar value.

Usually pKi stands for the Ki on a negative log10 scale, so that one unit is a factor of ten.

Apoptosis regulator Bcl-2 (Homo sapiens), sequence (P10415 whole entry, looked up): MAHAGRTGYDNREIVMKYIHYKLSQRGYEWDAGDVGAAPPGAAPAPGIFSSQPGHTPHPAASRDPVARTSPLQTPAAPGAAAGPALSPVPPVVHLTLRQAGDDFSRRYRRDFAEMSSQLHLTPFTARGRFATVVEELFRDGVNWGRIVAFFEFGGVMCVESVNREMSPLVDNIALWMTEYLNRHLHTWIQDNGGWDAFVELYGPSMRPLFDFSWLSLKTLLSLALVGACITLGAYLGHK

This assay has as its target Apoptosis regulator Bcl-2 (Homo sapiens) (UniProt P10415). The assay can be described thus: Binding affinity to Bcl-2 (unknown origin) by fluorescence polarization competition assay. Background: In fluorescence polarisation assays a small probe gives low polarisation when free and higher when bound to something large.
As to `Cc1ccccc1-c1cn(CCOc2cccc3ccccc23)c2cccc(-c3ccccc3C(=O)O)c12`, the pKi is 6.60.
The compound `COc1ccccc1-c1cn(Cc2cccc3ccccc23)c2cccc(-c3ccccc3C(=O)O)c12` gave a negative-log Ki (pKi) of 5.89.
In the case of `O=C(O)c1ccccc1-c1cccc2c1c(-c1cccc(C(F)(F)F)c1)cn2Cc1cccc2ccccc12` it was 5.97; in that of `O=C(O)c1ccccc1-c1cccc2c1c(-c1cccc(Cl)c1)cn2CCOc1cccc2ccccc12`, 5.49.
`O=C(O)c1ccc(Cl)cc1-c1cccc2c1ccn2CCCOc1cccc2ccccc12` gave a pKi of 6.31. Against the preceding compound, the pKi is 0.82 log units higher.
In the case of `Cc1cccc(-c2cn(Cc3cccc4ccccc34)c3cccc(-c4ccccc4C(=O)O)c23)c1` it was 5.74; in that of `O=C(O)c1ccccc1-c1cccc2c1c(-c1cccc(C(F)(F)F)c1)cn2CCOc1cccc2ccccc12`, 6.60.
The result for `Cc1ccc(-c2cn(CCOc3cccc4ccccc34)c3cccc(-c4ccccc4C(=O)O)c23)cc1` reads 6.06; that for `Cc1ccc(-c2cn(Cc3cccc4ccccc34)c3cccc(-c4ccccc4C(=O)O)c23)cc1`, 6.10; that for `Cc1cccc(-c2cn(CCOc3cccc4ccccc34)c3cccc(-c4ccccc4C(=O)O)c23)c1`, 6.44.
In turn, `COc1cccc(-c2cn(Cc3cccc4ccccc34)c3cccc(-c4ccccc4C(=O)O)c23)c1` showed a pKi of 6.28.
The result for `Cc1ccccc1-c1cn(Cc2cccc3ccccc23)c2cccc(-c3ccccc3C(=O)O)c12` reads 6.18; that for `O=C(O)c1ccccc1-c1cccc2c1c(-c1cccc(Cl)c1)cn2Cc1cccc2ccccc12`, 7.00; that for `Cc1cccc(-c2cn(CCOc3cccc4ccccc34)c3cccc(-c4ccccc4C(=O)O)c23)c1C`, 5.89.
Compound `O=C(O)c1ccccc1-c1cccc2c1ccn2CCCOc1cccc2ccccc12` gave a pKi of 5.34.
In turn, `CC(C)c1ccccc1-c1cn(CCOc2cccc3ccccc23)c2cccc(-c3ccccc3C(=O)O)c12` gave a pKi of 5.76.
In the case of `CCc1ccccc1-c1cn(CCOc2cccc3ccccc23)c2cccc(-c3ccccc3C(=O)O)c12` it was 6.52; in that of `COc1ccccc1-c1cn(CCOc2cccc3ccccc23)c2cccc(-c3ccccc3C(=O)O)c12`, 6.09.
The result for `O=C(O)c1ccccc1-c1cccc2c1c(-c1cccc(C(F)(F)F)c1)cn2CCCOc1cccc2ccccc12` reads 5.59; that for `Cc1cccc(-c2cn(CCCOc3cccc4ccccc34)c3cccc(-c4ccccc4C(=O)O)c23)c1`, 6.25.
In the case of `O=C(O)c1ccccc1-c1cccc2c1c(-c1ccccc1)cn2Cc1cccc2ccccc12` it was 6.09.
